According to patent US6420371B1, “Quinazolinone-containing pharmaceutical compositions for prevention of neovascularization and for treating malignancies” (Madasit Medical Research Services & Development Co., Ltd., priority 1997, dated 2002):
Values after ≈ are worked out from the molar mass of the structure shown.

Columns and labels:
[1] = system: bovine corneal endothelial cells; assay: cells; type: cell-based
Protocol: Cultures of bovine corneal endothelial cells were established from steer eyes and maintained as previously described [D. Gospodarowicz, et al., Exp. Eye Res., No. 25, pp. 75-89 (1997)]. Cells were cultured at 37° C. in 10% CO2 humidified incubators and the experiments were performed with early (3-8) cell passsages.
For preparation of the sulfate-labelled ECM (extra-cellular matrix), corneal endothelial cells were seeded into 4-well plates at a confluent density forming, within 4-6 h, a contact inhibited cell monolayer composed of closely apposed, and growth arrested cells. Under these conditions, the cells remained viable and retained their normal monolayer configuration and morphological appearance up to a concentration of 2 μg/ml halofuginone. Na2[^35S]O4 (540-590 mCi/mmol) was added (40 μCi/ml) one and five days after seeding and the cultures were incubated without medium change. At various intervals after seeding, the subendothelial ECM was exposed by dissolving (5 min., room temperature) the cell layer with PBS containing 0.5% Triton X-100 and 20 mM NH4OH, followed by four washes in PBS [I Viodavsky, et al., Cancer Res., Vol. 43, pp. 2704-2711 (1983), I. Vlodavsky, et al., Proc. Natl. Acad. Sci. USA, Vol. 84 pp. 2292-2296 (1987)]. To determine the total amount of sulfate labeled material, the BCM was digested with trypsin (25 μg/ml, 24 h, 37° C.) and the solubilized material counted in a β-counter.

[2] = system: 3T3 fibroblast cells; details: in vitro; cited from earlier work

## O=C(CC1NCCCC1O)Cn1cnc2cc(Br)c(Cl)cc2c1=O (stereo not shown) [Halofuginone]
[1]; 1 μg/ml Halofuginone
  inhibition of sulfate incorporation into ECM: almost complete inhibition
[1]; Bos taurus, Endothelial cell, read-out: concentration giving 50% inhibition of sulfate incorporation into ECM
  IC50: 0.2 µg/mL (≈ 0.482 µM)
[1]; bovine
  concentration up to which cells remained viable with normal monolayer configuration and morphology: ≤ 2 μg/ml
[2]
  proliferation of 3T3 fibroblast cells: inhibit the proliferation
